# Literature values in patent US8013163B2 (Astex Therapeutics Limited, priority 2005, dated 2011).
# System: malignant cells from B-cell chronic lymphocytic leukemia (B-CLL)
# Conditions: in vitro; cited from earlier work
smiles,measurement,value
CC[C@H](CO)Nc1nc(NCc2ccccc2)c2ncn(C(C)C)c2n1 [CYC 202],induction of apoptosis,induce in vitro apoptosis
